PubChem BioAssay AID1963450 (Molecular Pharmacology Branch, DTP, NCI, 2024)

Test system: 556581-035-R-J1-PDC complex spheroid growth
Assay: Anticancer human tumor 556581-035-R-J1-PDC patient-derived ovarian carcinoma cell line growth inhibition [Asc]
Conditions: for IC50: curve of first compound; for viability, T/C: stronger effect = lower value
Summary of the method: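 Stromal components (HUVEC and hMSC) are co-assembled with the cancer cells into multicellular spheroids. Drugs are then added singly or paired, at concentrations falling by half-log increments from a clinically achievable maximum, capped at 10 microM without known Cmax.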

[1] = second compound 0.1 µM, first compound 0.0316 µM
[2] = second compound 0.1 µM, first compound 0.1 µM
[3] = second compound 0.1 µM, first compound 0.316 µM
[4] = second compound 0.1 µM, first compound 1 µM
[5] = second compound 0.316 µM, first compound 0.0316 µM
[6] = second compound 0.316 µM, first compound 0.1 µM
[7] = second compound 0.316 µM, first compound 0.316 µM
[8] = second compound 0.316 µM, first compound 1 µM
[9] = second compound 1 µM, first compound 0.0316 µM
[10] = second compound 1 µM, first compound 0.1 µM
[11] = second compound 1 µM, first compound 0.316 µM
[12] = second compound 1 µM, first compound 1 µM
[13] = second compound 3.16 µM, first compound 0.0316 µM
[14] = second compound 3.16 µM, first compound 0.1 µM
[15] = second compound 3.16 µM, first compound 0.316 µM
[16] = second compound 3.16 µM, first compound 1 µM
[17] = second compound 10 µM, first compound 0.0316 µM
[18] = second compound 10 µM, first compound 0.1 µM
[19] = second compound 10 µM, first compound 0.316 µM
[20] = second compound 10 µM, first compound 1 µM
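Further: spheroids exposed to agents for 7 days before viability read.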

With `C#Cc1c(F)ccc2cc(O)cc(-c3ncc4c(N5CC6CCC(C5)N6)nc(OCC56CCCN5CC(F)C6)nc4c3F)c12` (stereo not given) + Cc1c(S(C)(=O)=O)c(-c2cc(F)cc(N3CCN(c4ccc(NS(=O)(=O)c5ccc(NC(CCN6CCC(C(=O)OCCCP(=O)(O)O)CC6)CSc6ccccc6)c(S(=O)(=O)C(F)(F)F)c5)cc4)CC3)c2)c(-c2ccc(Cl)cc2)n1C(C)C the IC50 (second compound 0.1 µM) was > 10000 nM, the IC50 (second compound 0.316 µM) was > 10000 nM and the IC50 (second compound 1 µM) was 7570 nM. It also gave an IC50 (second compound 3.16 µM) of 8820 nM, an IC50 (second compound 10 µM) of 1210 nM and a viability, T/C [1] of 82%. It also gave a viability, T/C [2] of 83.8%, a viability, T/C [3] of 63.6% and a viability, T/C [4] of 64.5%. The viability, T/C (second compound 0.1 µM, first compound 3.16 µM) was 79.7%, the viability, T/C (second compound 0.1 µM, first compound 10 µM) was 71.9% and the viability, T/C [5] was 55%. The viability, T/C [6] was 79.5%, the viability, T/C [7] was 81.9% and the viability, T/C [8] was 70.1%. For the same compound, the viability, T/C (second compound 0.316 µM, first compound 3.16 µM) was 63.6%, the viability, T/C (second compound 0.316 µM, first compound 10 µM) was 63.5% and the viability, T/C [9] was 73.3%. The viability, T/C [10] was 65.3%, the viability, T/C [11] was 63.8% and the viability, T/C [12] was 65.1%. For the same compound, the viability, T/C (second compound 1 µM, first compound 3.16 µM) was 59.2%, the viability, T/C (second compound 1 µM, first compound 10 µM) was 46.9% and the viability, T/C [13] was 51.7%. It also gave a viability, T/C [14] of 68.3%, a viability, T/C [15] of 67.3% and a viability, T/C [16] of 60.7%. It also gave a viability, T/C (second compound 3.16 µM, first compound 3.16 µM) of 57.8%, a viability, T/C (second compound 3.16 µM, first compound 10 µM) of 49.1% and a viability, T/C [17] of 64.8%. The viability, T/C [18] was 58.2%, the viability, T/C [19] was 59.9% and the viability, T/C [20] was 47%. For the same compound, the viability, T/C (second compound 10 µM, first compound 3.16 µM) was 47.3% and the viability, T/C (second compound 10 µM, first compound 10 µM) was 39.6%.

`CNC(C)C(=O)NC1CN(S(=O)(=O)c2cccc(S(=O)(=O)N3CCC4CCC(C(=O)NC(c5ccccc5)c5ccccc5)N4C(=O)C(NC(=O)C(C)NC)C3)c2)CCC2CCC(C(=O)NC(c3ccccc3)c3ccccc3)N2C1=O` (stereo not given) + Cc1c(S(C)(=O)=O)c(-c2cc(F)cc(N3CCN(c4ccc(NS(=O)(=O)c5ccc(NC(CCN6CCC(C(=O)OCCCP(=O)(O)O)CC6)CSc6ccccc6)c(S(=O)(=O)C(F)(F)F)c5)cc4)CC3)c2)c(-c2ccc(Cl)cc2)n1C(C)C gave an IC50 (second compound 0.1 µM) of 87.3 nM, an IC50 (second compound 0.316 µM) of 73.8 nM and an IC50 (second compound 1 µM) of 49.9 nM. The IC50 (second compound 3.16 µM) was 6.27 nM, the IC50 (second compound 10 µM) was < 3.16 nM and the viability, T/C (second compound 0.1 µM, first compound 0.00316 µM) was 68.6%. For the same compound, the viability, T/C (second compound 0.1 µM, first compound 0.01 µM) was 69.5%, the viability, T/C [1] was 60% and the viability, T/C [2] was 48%. For the same compound, the viability, T/C [3] was 49.1%, the viability, T/C [4] was 41.1% and the viability, T/C (second compound 0.316 µM, first compound 0.00316 µM) was 60.2%. For the same compound, the viability, T/C (second compound 0.316 µM, first compound 0.01 µM) was 73.3%, the viability, T/C [5] was 68.4% and the viability, T/C [6] was 43.7%. For the same compound, the viability, T/C [7] was 41%, the viability, T/C [8] was 26% and the viability, T/C (second compound 1 µM, first compound 0.00316 µM) was 61.8%. The viability, T/C (second compound 1 µM, first compound 0.01 µM) was 53.2%, the viability, T/C [9] was 67.3% and the viability, T/C [10] was 33.5%. The viability, T/C [11] was 28.6%, the viability, T/C [12] was 26.8% and the viability, T/C (second compound 3.16 µM, first compound 0.00316 µM) was 49.7%. It also gave a viability, T/C (second compound 3.16 µM, first compound 0.01 µM) of 54%, a viability, T/C [13] of 34.7% and a viability, T/C [14] of 35.5%. The viability, T/C [15] was 24.5%, the viability, T/C [16] was 24.5% and the viability, T/C (second compound 10 µM, first compound 0.00316 µM) was 49.4%. It also gave a viability, T/C (second compound 10 µM, first compound 0.01 µM) of 35.1%, a viability, T/C [17] of 42.4% and a viability, T/C [18] of 33.6%. The viability, T/C [19] was 27.8% and the viability, T/C [20] was 30.7%.

`Cc1nc(N2CCC3(CC2)COC(C)C3N)c(CO)nc1Sc1ccnc(N)c1Cl` (stereo not given) + Cc1c(S(C)(=O)=O)c(-c2cc(F)cc(N3CCN(c4ccc(NS(=O)(=O)c5ccc(NC(CCN6CCC(C(=O)OCCCP(=O)(O)O)CC6)CSc6ccccc6)c(S(=O)(=O)C(F)(F)F)c5)cc4)CC3)c2)c(-c2ccc(Cl)cc2)n1C(C)C gave an IC50 (second compound 0.1 µM) of 544 nM, an IC50 (second compound 0.316 µM) of 389 nM and an IC50 (second compound 1 µM) of 266 nM. The IC50 (second compound 3.16 µM) was 97 nM, the IC50 (second compound 10 µM) was 14.1 nM and the viability, T/C (second compound 0.1 µM, first compound 0.00949 µM) was 81.7%. For the same compound, the viability, T/C (second compound 0.1 µM, first compound 0.03 µM) was 90.2%, the viability, T/C (second compound 0.1 µM, first compound 0.0949 µM) was 62.4% and the viability, T/C (second compound 0.1 µM, first compound 0.3 µM) was 57.5%. It also gave a viability, T/C (second compound 0.1 µM, first compound 0.949 µM) of 47%, a viability, T/C (second compound 0.1 µM, first compound 3 µM) of 36.2% and a viability, T/C (second compound 0.316 µM, first compound 0.00949 µM) of 72.5%. For the same compound, the viability, T/C (second compound 0.316 µM, first compound 0.03 µM) was 64.4%, the viability, T/C (second compound 0.316 µM, first compound 0.0949 µM) was 54.9% and the viability, T/C (second compound 0.316 µM, first compound 0.3 µM) was 53.8%. It also gave a viability, T/C (second compound 0.316 µM, first compound 0.949 µM) of 47.6%, a viability, T/C (second compound 0.316 µM, first compound 3 µM) of 32.8% and a viability, T/C (second compound 1 µM, first compound 0.00949 µM) of 62%. For the same compound, the viability, T/C (second compound 1 µM, first compound 0.03 µM) was 63.8%, the viability, T/C (second compound 1 µM, first compound 0.0949 µM) was 59.5% and the viability, T/C (second compound 1 µM, first compound 0.3 µM) was 49.1%. The viability, T/C (second compound 1 µM, first compound 0.949 µM) was 31.2%, the viability, T/C (second compound 1 µM, first compound 3 µM) was 30.6% and the viability, T/C (second compound 3.16 µM, first compound 0.00949 µM) was 55.5%. It also gave a viability, T/C (second compound 3.16 µM, first compound 0.03 µM) of 60.5%, a viability, T/C (second compound 3.16 µM, first compound 0.0949 µM) of 50.3% and a viability, T/C (second compound 3.16 µM, first compound 0.3 µM) of 35.7%. For the same compound, the viability, T/C (second compound 3.16 µM, first compound 0.949 µM) was 39.9%, the viability, T/C (second compound 3.16 µM, first compound 3 µM) was 29.8% and the viability, T/C (second compound 10 µM, first compound 0.00949 µM) was 50.8%. The viability, T/C (second compound 10 µM, first compound 0.03 µM) was 48.7%, the viability, T/C (second compound 10 µM, first compound 0.0949 µM) was 43.7% and the viability, T/C (second compound 10 µM, first compound 0.3 µM) was 30.7%. For the same compound, the viability, T/C (second compound 10 µM, first compound 0.949 µM) was 37.4% and the viability, T/C (second compound 10 µM, first compound 3 µM) was 22.3%.
